The record followed here is US20070264241A1, “Compounds for Enhanced Cancer Therapy” (priority 2004, published 2007).

Experiment [1] relates to GFAP in hGBM-1, hGBM-5 and hGBM-14 cells. Briefly: GFAP expression by immunocytochemistry and Western blot in primary glioblastoma cultures. The class given is cell-based, human. On the procedure: Tumour cells cultured on laminin/poly-ornithine coated glass chamber slides were washed in phosphate buffered saline (PBS) and fixed in 4% paraformaldehyde in phosphate buffer for 10 minutes. Cells were washed in PBS three times and incubated with primary antibodies diluted in buffer (0.3% TX-100 (Sigma), albumin fraction V (Sigma), phosphate buffer pH 7.0) over night at 4° C. Secondary antibodies conjugated with FITC or Cy3 (Jackson lmmunoresearch Laboratories) were applied for one hour at room temperature, followed by rinsing with PBS. Antibodies bound were visualized with epifluorescence microscopy using a Leica DMRB microscope, and photographs were taken using a Nikon F50 camera. The following antibodies were used at specified dilutions: monoclonal anti GFAP, 1:500 (DAKO), monodonal anti Cx43 (1:1000, Transduction Laboratories), and FITC (1:80)-conjugated secondary antibodies (Jackson lmmunoresearch Laboratories). Primary glioblastoma cells were grown to 75% confluency and cultured for 48 hours in the presence or absence of 4-PB (2, 5 and 10 mM) and processed as previously described (Asklund et al, Exp cell Res, 2003, 284:183-193). Briefly, cell extracts, containing equal amount of protein (30 μg/lane for Cx43 detection and 60 μg/lane for GFAP detection) were loaded on 10% polyacrylamide gels, separated by SDS-PAGE, and electro-transferred onto nitrocellulose membranes. A rabbit polyclonal antibody to Cx43 diluted 1:8000 (Sigma) or a mouse monoclonal antibody to GFAP diluted 1:1000 (Pharmingen) were applied overnight at […]. The detection step was performed with the enhanced chemiluminescence (ECL) detection kit (Amersham). The membranes were exposed to Hyperfilm-ECL (Amersham) for 1-5 min. For quantification, films were scanned and analysed with Image Gauge (version 3.12, Fuji Photo Film Corp.). Data analysis was performed using the program Sigma Plot for Windows (version 6, Jandel Corp.). All results are expressed as means ± SE for the indicated number of experiments (FIG. 6).
A general note: In western blotting, separated proteins are transferred to a membrane and probed.

Experiment [2] relates to Cx43 in human neural stem cells (HNSC.100). In words: Western blot analysis for Cx43 in neural stem cells. The class given is cell-based. The following applies: 0.5 mM 4-PB, up to 4 days. On the procedure:
Human neural stem cells (HNSC.100 cells, Villa et al Exp Neurol, 2000, 161(1):67-84) were obtained from Alberto Martinez Serrano, Department of Molecular Biology, Center of Molecular Biology Severo Ochoa, Autonomous University of Madrid-CSIC, Campus Cantoblanco, Madrid, 28049, Spain. Neural stem cells were grown to around 50% confluence and then 0.5 mM 4-PB treatment was started and continued for 4 days. Medium was replaced every 2nd day with fresh drug. Whole-cell lysates from three 100 mm petri dishes were solubilized in 100 μl of lysis buffer containing 250 mM Tris-HCl (pH 8.5), 2% SDS, 10% glycerol, 0.05 mM PMSF and protease inhibitor cocktail (Roche). Protein concentrations were quantified using the micro BSA protein assay kit (Pierce). Cell lysates were further mixed with loading buffer containing 1% β-mercaptoethanol, 0.02% bromophenol blue, and 0.1 M DTT. […] For quantification, films were scanned and analyzed with Image Gauge (Version 3.12, Fuji Photo Film Corp.). All results are expressed as means ± SE for the indicated number of experiments (FIG. 13). […] As the bands of protein became visible, the membranes were washed several times and total amount of loaded protein was quantified using computerized densitometric analysis.

The test system of experiment [3] is GFAP and connexin 43 in S6 cells. Briefly: Western blot of GFAP and connexin 43 in S6 glioma cells after 4-PB. Type of experiment: cell-based, Rat. The settings on record: 2 mM 4-PB for 2 days. How it is done: Protein from S6 cells treated with 4-PB for 48 h was extracted and a Western blot analysis was performed. The intensity of the Cx43 specific signal was determined by imager and the activation of Cx43 was calculated. S6 cells not treated with 4-PB acted as reference.

In experiment [4] the test system is gap junction communication between HNSC100 neural stem cells and glioblastoma cells. In words: Fluorescent dye transfer between neural stem cells and glioma cells. The class given is cell-based, human. The settings on record: pre-treatment 48 hours with 4-PB, 0.5 mM (stem cells) and 2 mM (glioblastoma cells). How it is done:
Donor human neural stem cells (1×10^5 HNSC100) and recipient human glioblastoma cells (1×10^5 U343MGa) cells were plated each in 4 separate 35 mm petri dishes. […] Donor cells were incubated with 10 μM Dil (a fluorescent lipophilic carbocyanine tracer; Molecular Probes) and 5 μM Calcein-AM (an acetoxymethyl ester derivative; Molecular Probes) for 20 min in complete medium. Cells were washed three times with culture medium and twice with PBS to remove free dye. After trypsinization, cells were pelleted by centrifugation and resuspended in co-culture medium. Donor cells 50% confluent were added to the plate of recipient cells. AGA treatment, when performed, was always continued throughout the experiment. Assessment of functional GJC by Calcein dye transfer from donor to recipient cells was carried out after 4 hours using an Olympus BX50WI microscope.

Experiment [5] has as its system U87MG/tomato kinase positive cells. In words: Synergistic cell killing effect of AZT and 4-PB. Type of experiment: cell-based, human. The settings on record: 72 hours. On the procedure:
Medium was replaced by 300 μL of MTT solution (0.5mg/mL; Sigma # M 2128) per well and incubated at 37° C. for 30 minutes. The MTT solution was aspirated and 350 μL of isopropranol was added to dissolve the formazan product by gentle shaking. Three 100 μL aliquots of formazan solution from each well were pipetted into a 96-well microplate. Optical density was measured by Multiscan RMCC/340 plate reader (MicroELISA Reader) at 570 nm with reference at 650 nm. The results were expressed as percentage of live cells compared to control untreated cells (100%). The analyses were run as three independent experiments.

“Also recorded” adds a separate entry of the source.

On to 4-phenylbutyrate [4-PB], for which the “phosphorylated isoform of GFAP (Western blot)” value in experiment [1] (4-PB 2, 5, 10 mM, 48 hours) is on record as “remained stable”. In experiment [1] (all three cultures, 5 mM 4-PB for 48 hours), the “GFAP immunostaining intensity (immunocytochemistry)” value is “more intense immunostaining; also recorded: increased”. In experiment [1] (hGBM-5 and hGBM-14, 4-PB 2, 5, 10 mM, 48 hours), the “non-phosphorylated isoform of GFAP (Western blot)” value is “upregulated; also recorded: increase”. In addition, the “level of Cx43 protein (Western blot)” value in experiment [2] is reported as “increased; also recorded: upregulated”. In experiment [3], the “expression of GFAP” value is “increased expression” and the “expression of connexin 43” value is on record as “increased expression”. Further, in experiment [4], the “dye transfer from neural stem cells to glioblastoma cells” value is recorded as “can induce such gap junction communication; also recorded: substantially enhanced”. In experiment [5] (15 μM AZT and 0.5 mM 4-PB), the “combination effect on cell killing” value is “clear additive or synergistic effects”. Further, in experiment [5] (15 μM AZT, 4-PB 0.5-8 mM), the “effect of 4-PB on cell killing by AZT” value is listed as “enhanced the effects of AZT”.
